SMILES strings stand for the structures. Where two headings read alike, the source gives them in different places.

What is called MRT is the average time that molecules of a dose stay in the body. As usually defined, the Cmax is the peak of the concentration-time curve.

Assay type in all cases: in vivo
Series [1] relates to APP/PS1 mice. Nature of the series: 2-day radial arm water maze (reference memory). The note with it: 3 mg/kg i.p. for 3 weeks. As for the experimental part: The radial arm water maze task, a hybrid of the classic Morris Water Maze and the radial arm land maze, was performed as described in J. Alamed, D. M. Wilcock, D. M. Diamond, M. N. Gordon, D. Morgan, Two-day radial-arm water maze learning and memory task; robust resolution of amyloid-related memory deficits in transgenic mice, Nat. Prot. 1 (2006) 1671-1679, herein incorporated by reference in its entirety. The mouse had to swim in 6 alleys (arms) radiating from a central area until it found a hidden (submerged) platform at the end of one of the arms, based on visual cues placed in the room. The first day of the protocol was a training day on which mice were trained to identify the platform location by alternating between a visible and a hidden platform in a goal arm. The final 3 trials on that day and all 15 trials on day 2 used a hidden escape platform to force mice to use spatial cues to identify the location of the goal arm. […] The number of incorrect arm entries (entries to arms with no platform) was counted. […] Failure to select an arm after 15 sec was counted as an error and the mouse was returned to the start arm. […] For data analysis, averages for each mouse were calculated using blocks of 3 trials. […]

Series [2] is described as follows: Pharmacokinetic study in mice. The note with it: 25 mg/kg i.p.
Series [3] in a line: Acute toxicity study with histology. The settings on record: 120 or 240 mg/kg, i.p. From the text:
Brain, muscle, kidney, and liver were harvested from each mouse, and tissue from each organ was examined histologically by a board-certified pathologist for signs of toxicity.

Regarding `COc1ccc(CNc2c3c(nc4ccc(C#N)cc24)CCN(C(C)=O)C3)cc1Cl` [Compound H, 2-acetyl-10-[(3-chloro-4-methoxybenzyl)amino]-1,2,3,4-tetrahydrobenzo[b][1,6]naphthyridine-8-carbonitrile], the “effect on reference memory of WT mice (2-day RAWM)” value in series [1] is listed as “no effect”. In series [2] (male C57Bl6 mice), the “Cmax, brain” value amounted to 492.25 ng/g; the “Tmax, brain” value worked out at 15 min; the “Tmax, plasma” value amounted to 15 min; the “t1/2 elimination half-life, brain” value stood at 39 min. Besides, the “t1/2 elimination half-life, plasma” value in series [2] (male C57Bl6 mice) stood at 64.2 min. In series [2] (male, C57Bl6, mouse, brain/plasma, ip, 25 mg/kg), the brain/plasma Cmax ratio came out at 0.31. Also, the MRT in series [2] (mouse, brain, ip, male C57Bl6 mice, read-out: MRT Mean Residence Time, brain) was 57 min. The peak level in series [2] (mouse, plasma, ip, male C57Bl6 mice) (Cmax) was 1570 ng/mL. For the same compound, the MRT in series [2] (mouse, plasma, ip, male C57Bl6 mice, read-out: MRT Mean Residence Time, plasma) came out at 93.6 min. Further, in series [3], the “brain sections, CD45 immunostain” value is “no signs of inflammation”; the “brain sections, GFAP immunostain” value is “no signs of gliosis”; the “brain sections, H&E” value was “did not show any signs of toxicity”; the “brain sections, LFB-PAS stain” value is on record as “no signs of demyelination”. In series [3], the “kidney sections, H&E” value is “no toxicity”; the “kidney sections, PAS stain” value is “did not show any abnormalities in the glomerular basement membrane”; the “kidney sections, trichrome stain” value was “no fibrosis”; the “liver sections, H&E” value was “did not show any signs of toxicity”. Further, in series [3], the “liver sections, trichrome stain” value is given as “no fibrosis or cirrhotic liver disease”; the “muscle sections, H&E” value was “no signs of toxicity”; the “muscle sections, trichrome stain” value is given as “no muscle fibrosis”.

The values are drawn from patent US10626113B2, “Phosphodiesterase inhibitors and uses thereof” (THE TRUSTEES OF COLUMBIA UNIVERSITY IN THE CITY OF NEW YORK, priority 2012, dated 2020).
